Publication PMC7617889, “Molecular basis for pH sensing in the KDEL trafficking receptor” (Structure (London, England : 1993), 2024)
Where no end group is shown, it is not given here.

Key:
[1] = system: HeLa S3 cells (endogenous KDEL receptor); test: ER secretion assay (western blot of cells and media); assay type: cell-based, human; details: for secretion of endogenous luminal ER chaperones (BiP, PDI, ERP44) caused by the exogenous signal variant: western blot, n = 3, compared with signals having leucine at −1, result in words; for ER retention of the mScarlet reporter (secretion to media): 24 hr expression, western blot of cell extracts and medium, n = 3, result in words
Source text: To further explore if disturbing the water will disrupt the binding, the terminal leucine at the −1 position in the HDEL ligand was alchemically changed to phenylalanine or alanine (Figures 3E and 3F). Phenylalanine also stabilized the two waters in the binding pocket, resulting in a high unbinding free energy. Due to its small size, alanine, however, was unable to stabilize the water, resulting in lower binding free energy. To validate these calculations, we tested the impact of signal variants at the −1 position on both retrieval of the endogenous KDELR from the Golgi to the ER and ER retention of a reporter protein carrying the signal variant in a cellular assay. To measure the role of the −1 position on retrieval of the endogenous KDELR to the ER, cells were transfected with mScarlet-reporters carrying −1 alanine (H/KDEA) or phenylalanine (H/KDEF) variants of either the HDEL or KDEL retrieval signals (Figure 4A). […] Finally, the effect of −1 variant signals on KDELR retrieval of endogenous ER chaperones was also tested. […] This effect was reduced for HDEF or KDEF signals and lost entirely for HDEA or KDEA signals (Figures 4B and 4D).
Figure 4 The terminal amino acid modulates recognition of the ERS by the KDEL receptor (A) Endogenous KDEL receptor redistribution was measured in COS-7 cells in the absence (-ligand) or presence of H/KDEL/F/A (mScarlet-xDEx^sec). TGN46 was used as a Golgi marker. The scale bar is 10 μm. The mean differences for H/KDEL/F/A comparisons against the shared no-ligand control are shown as Cummings estimation plots. The individual data points for the fraction of KDEL receptor fluorescence in the Golgi are plotted on the upper axes. On the lower axes, mean differences are plotted as bootstrap sampling distributions. Each mean difference is depicted as a dot. Each 95% confidence interval is indicated by the ends of the vertical error bars. (B) Cells and media collected from HeLa S3 cells expressing the xDEx variants (mScarlet-K/HDEx^sec) indicated in the figure were western blotted for resident ER chaperons and KDEL receptor.*unspecific bands (C) K/HDEx secretion to media bar graph showing mean ± SEM (n = 3). (D) Bar graph of endogenous ER chaperones secreted after challenged with different retrieval signals as measured by western blot showing mean ± SEM (n = 3).
ER chaperone secretion assays were performed as described in Gerondopoulos et al.[11] Briefly HeLa S3 cells were transfected with mScarlet-ligand (+xDEL ligand) or pcDNA3.1 (− ligand), and allowed to express the respective proteins for 24 hr. The media were TCA precipitated and both cell and media were resuspended and boiled in SDS-PAGE sample buffer. All samples were analysed by Western blotting and signals on films were measured by densitometry in FIJI.[33] Data were plotted as bar graphs in GraphPad Prism.

[2] = system: human KDELR1-GFP D9N in COS-7 cells; test: Retrieval assay (KDEL receptor redistribution Golgi to ER); assay type: cell-based; details: KDELR-GFP D9N vs WT, mScarlet ligand
Source text: Figure 6 Effect of the water on proton transfer between Asp9 and His12 (A) In the bound state, a proton could be transferred from the histidine (His12/H12) to the aspartate (Asp9/D9) through the crystallographic water. A similar proton transfer can also be made in the apo state. (B) In the apo and bound state, the free energy barrier for the proton transfer (the center of excess charge) from the histidine to aspartate is similar. A larger energy barrier is observed for the proton transfer from aspartate back to the histidine in the bound state. (C) WT, D9A and D9N-mutant KDEL receptors redistribution in COS-7 cells in the absence (-ligand) or presence of K/R/HDEL (mScarlet-xDEL^sec) ligand. TGN46 was used as a Golgi marker. […] (D) The fraction of wild-type and H12A, D9A, and D9N-mutant KDEL receptors localized to the Golgi was measured before (no ligand) and after challenge with different retrieval signals (K/R/HDEL) and is shown as Cummings estimation plots. […]
Retrieval assays were performed as described in Gerondopoulos et al.[11] […] The signal for the KDEL receptor (integrated pixel intensity) was measured in individual cells using FIJI[33] for the Golgi region defined by the TGN46 Golgi marker and for the entire cell in the presence (+) and absence (-) of ligand. The fraction of KDEL receptor in the Golgi apparatus was calculated by dividing the Golgi signal by the total cell signal. […]

chicken KDELR = details: cited from earlier work
TAEHDEL peptide = details: cited from earlier work
TAEKDEL peptide = details: cited from earlier work
[3] = molecular target: T1, Gallus gallus (Gg) KDELR2 (Gallus gallus, UniProt Q5ZKX9); test: Peptide binding assay, competition of 3H-labelled peptide (filter binding, scintillation counting); details: competition of 3H-labelled peptide at 20 nM, 20 mM MES pH 5.4, 40 mM sodium chloride, 0.01% DDM 0.0005% CHS, 20°C, 10 min, mean, n = 3, read-out: affinity (mean IC50, Figure S3)
T1 construct: GFP-His fusion (C); made in house; host or cells: Saccharomyces cerevisiae strain BY5460
T1 sequence (Q5ZKX9 1-212): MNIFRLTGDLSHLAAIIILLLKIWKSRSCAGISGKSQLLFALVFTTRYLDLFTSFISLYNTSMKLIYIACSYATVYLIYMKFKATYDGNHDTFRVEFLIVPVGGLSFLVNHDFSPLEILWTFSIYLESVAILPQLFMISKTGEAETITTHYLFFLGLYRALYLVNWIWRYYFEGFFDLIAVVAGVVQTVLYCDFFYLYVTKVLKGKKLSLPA
Procedure: Binding assays were performed as detailed in Bräuer, P. et al.[19] WT or mutant protein (5 μL) in 20 mM MES pH 5.4, 40 mM Sodium Chloride, 0.01% DDM 0.0005% CHS was incubated with 5 μL of 3H-TAEHDEL (Cambridge Research Biochemicals, UK) at 20 nM at 20°C for 10 min. Using a vacuum manifold, the reaction was then filtered through a 0.22 μm mixed cellulose ester filters (Millipore, USA). Filters were washed with 2 x 0.5 mL cold buffer. The amount of peptide remaining bound was measured using scintillation counting in Ultima Gold (Perkin Elmer). Experiments were performed at least three times, independently, to generate an overall mean and standard deviation (s.d).
Figure S3. Affinity of different cargo signals, related to Figure 5. Mean IC50 values calculated for the TAEHDEF and TAEHDEL peptides competing […] peptide. Error bars are standard deviation of the mean (n = 3).
(1 picture or pasted object on this page, not shown here)

[4] = molecular target: T2, human KDELR1-GFP D9N (human) (UniProt P24390)
T2 sequence: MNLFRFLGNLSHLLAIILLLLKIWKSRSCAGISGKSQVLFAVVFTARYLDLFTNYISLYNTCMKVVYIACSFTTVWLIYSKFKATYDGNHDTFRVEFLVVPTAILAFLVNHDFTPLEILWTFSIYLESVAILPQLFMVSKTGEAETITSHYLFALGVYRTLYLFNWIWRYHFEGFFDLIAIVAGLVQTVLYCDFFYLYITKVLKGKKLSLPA

| Substance | secretion of endogenous luminal ER chaperones (BiP, PDI, ERP44) caused by the exogenous signal variant [1] | Kd (chicken KDELR) | also measured |
| --- | --- | --- | --- |
| HDEA [HDEL ligand with terminal leucine changed to alanine (simulation)] | lost entirely | – | – |
| HDEF [HDEL ligand with terminal leucine changed to phenylalanine (simulation)] | reduced | – | ER retention of the mScarlet reporter (secretion to media) [1]: retained more efficiently than the alanine variants but less efficiently than when leucine is present |
| HDEL | – | 240 nM | retrieval of cargo by the Asp9Asn receptor variant relative to WT [2]: ~ 80 % WT levels |
| KDEA [KDEL ligand with alanine at the −1 position (simulation)] | lost entirely | – | – |
| KDEF^sec: hGHss-mScarlet-H. sapiens BiP639-654 L654F secreted reporter (GPPPTGEEDTAEKDEF; not fully specified (N-terminus)) | reduced | – | ER retention of the mScarlet reporter (secretion to media) [1]: retained more efficiently than the alanine variants but less efficiently than when leucine is present |
| KDEL receptor (from UniProt Q5ZKX9) | – | – | Kd (TAEHDEL peptide): 240 nM; Kd (TAEKDEL peptide): 1940 nM |
| Lys-Asp-Glu-Leu [KDEL] | – | 1940 nM | – |
| RDEL [RDEL variant of the retrieval signal peptide] | – | 2710 nM | – |
| TAEHDEF [TAEHDEF] | – | – | IC50 [3]: 23000 nM |
| TAEHDEL [TAEHDEL, reference compound] | – | – | IC50 [3]: 18000 nM |
| TAEKDEL [ER-retrieval signal peptide with canonical KDEL, Cambridge peptides] | – | 1940 nM | – |
| hGHss-mScarlet-H. sapiens BiP639-654 K651H (HDEL^SEC) (from UniProt P11021 639-654) | – | – | ligand-induced redistribution of KDELR1-GFP from the Golgi in COS-7 cells (cell retrieval assay), HDEL ligand [4]: 80 % WT levels |
